Measurements from US20220242846A1, “ISOINDOLINONE COMPOUNDS” (Monte Rosa Therapeutics AG, priority 2019, published 2022).
Read-outs that look alike come from different tables or passages of the source.

Key:
GSPT1 = GSPT1 (Homo sapiens, UniProt P15170+Q96SW2); assay: Immunofluorescence assay for GSPT1 degradation in CAL-51 cells; format: cell-based; design: CAL-51 cells were purchased from DSMZ (cat. Number ACC302); endogenous in cells; host or cells: CAL-51 (DSMZ ACC302); conditions: compound treatment 6 hours
Chain of GSPT1 (P15170 whole entry): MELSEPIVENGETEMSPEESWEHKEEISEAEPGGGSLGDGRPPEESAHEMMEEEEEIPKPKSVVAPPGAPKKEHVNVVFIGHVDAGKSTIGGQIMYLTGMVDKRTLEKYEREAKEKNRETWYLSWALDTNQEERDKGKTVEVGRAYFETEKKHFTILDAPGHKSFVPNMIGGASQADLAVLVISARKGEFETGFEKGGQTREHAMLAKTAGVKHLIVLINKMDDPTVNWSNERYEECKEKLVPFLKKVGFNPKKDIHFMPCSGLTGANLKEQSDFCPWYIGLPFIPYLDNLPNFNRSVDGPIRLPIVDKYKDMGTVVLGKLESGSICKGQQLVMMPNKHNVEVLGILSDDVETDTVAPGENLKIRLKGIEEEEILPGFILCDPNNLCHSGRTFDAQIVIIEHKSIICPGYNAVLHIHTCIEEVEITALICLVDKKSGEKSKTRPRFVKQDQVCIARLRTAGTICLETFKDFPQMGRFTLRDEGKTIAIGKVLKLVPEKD
Chain of GSPT1 (Q96SW2 whole entry): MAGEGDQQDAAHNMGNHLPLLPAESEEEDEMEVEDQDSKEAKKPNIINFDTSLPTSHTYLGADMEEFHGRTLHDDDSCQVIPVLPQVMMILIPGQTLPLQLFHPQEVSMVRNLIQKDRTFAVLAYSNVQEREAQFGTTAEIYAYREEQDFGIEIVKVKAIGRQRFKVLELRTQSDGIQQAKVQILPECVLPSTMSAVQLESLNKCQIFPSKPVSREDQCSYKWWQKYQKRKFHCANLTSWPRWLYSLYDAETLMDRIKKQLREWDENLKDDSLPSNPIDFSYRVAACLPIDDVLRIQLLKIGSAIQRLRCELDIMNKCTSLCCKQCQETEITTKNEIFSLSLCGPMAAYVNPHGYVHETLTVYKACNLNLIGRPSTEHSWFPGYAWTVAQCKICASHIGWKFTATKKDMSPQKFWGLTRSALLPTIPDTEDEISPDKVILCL
Chain of GSPT1 (Q16531 2-1140 partner limits assumed): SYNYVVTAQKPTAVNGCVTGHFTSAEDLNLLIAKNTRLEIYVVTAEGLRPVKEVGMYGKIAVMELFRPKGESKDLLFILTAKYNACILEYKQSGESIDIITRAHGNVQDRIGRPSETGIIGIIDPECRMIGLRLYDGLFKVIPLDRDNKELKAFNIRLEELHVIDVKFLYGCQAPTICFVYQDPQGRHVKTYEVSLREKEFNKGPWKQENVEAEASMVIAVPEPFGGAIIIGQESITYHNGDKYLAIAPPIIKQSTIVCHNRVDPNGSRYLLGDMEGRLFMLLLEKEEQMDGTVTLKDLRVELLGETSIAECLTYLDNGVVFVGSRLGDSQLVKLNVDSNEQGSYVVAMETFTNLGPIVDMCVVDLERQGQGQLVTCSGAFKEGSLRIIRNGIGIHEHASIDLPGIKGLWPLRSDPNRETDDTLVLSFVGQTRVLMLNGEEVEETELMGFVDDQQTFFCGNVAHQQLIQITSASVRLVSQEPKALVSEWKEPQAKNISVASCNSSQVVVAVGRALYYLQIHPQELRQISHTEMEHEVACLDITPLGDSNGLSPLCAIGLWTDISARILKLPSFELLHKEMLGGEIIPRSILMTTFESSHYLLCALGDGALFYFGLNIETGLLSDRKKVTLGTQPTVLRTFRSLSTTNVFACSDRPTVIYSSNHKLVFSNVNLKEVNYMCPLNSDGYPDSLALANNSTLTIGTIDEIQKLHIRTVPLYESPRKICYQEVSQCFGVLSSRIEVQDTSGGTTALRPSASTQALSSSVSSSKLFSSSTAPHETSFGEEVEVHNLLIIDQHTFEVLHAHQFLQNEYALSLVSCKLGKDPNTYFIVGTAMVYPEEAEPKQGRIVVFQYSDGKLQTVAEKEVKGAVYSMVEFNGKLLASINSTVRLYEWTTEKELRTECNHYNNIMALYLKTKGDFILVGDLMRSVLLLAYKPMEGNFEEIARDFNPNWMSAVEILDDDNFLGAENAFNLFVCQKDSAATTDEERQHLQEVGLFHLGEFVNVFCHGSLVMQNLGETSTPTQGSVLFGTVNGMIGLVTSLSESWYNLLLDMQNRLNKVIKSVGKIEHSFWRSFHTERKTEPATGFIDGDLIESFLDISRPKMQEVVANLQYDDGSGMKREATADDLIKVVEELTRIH
Protocol: CAL-51 cells were purchased from DSMZ (cat. Number ACC302), sub-cultured in 90% Dulbecco's MEM (4.5 g/L glucose, Gibco 11965) +10% heat inactivated FBS (BioConcept, 2-01F136I) and incubated at 37° C., 5% CO2. For the assay, imaging microtiterplate Cell Carrier 96 Ultra (Perkin Elmer 6055302) were pre-coated with Fibronectin (Sigma F085, 300 at 0.2 μg/ml) in PBS (1000, Gibco 14190) for 45 min at room temperature, rinsed with PBS and CAL-51 cells (30K cells/well) were plated and let to adhere overnight. Cells were treated with compounds typically using a serial dilution ranging from 30 μM to 0.1 nM for 6 hours. Compounds were stored at 10 mM DMSO stocks. Vehicle (DMSO), positive (CC-885, 10 μM) and rescue controls (positive control plus 0.2 μM bortezomib) were also included at this stage. Cells were subsequently rinsed with PBS and fixed in 10% Formalin solution (50 μl, Sigma HT5011)) for 20 mins at room temperature. Following three consecutive PBS washes (100 μl), cells were permeabilized in 0.1% Triton X-100 in PBS (Sigma 93443, 50 μl) for 15 mins at room temperature. Following three further PBS washes, 50 μl blocking buffer (1% BSA, Sigma A4503, in PBS) was added for 45 min for signal-to-noise reduction. Primary antibody (human GSPT1, Sigma HPA052488) was diluted in blocking buffer (dil. 1/300, 35 μl/well) and incubated with the cells overnight at 4° C. After three PBS washes, Alexa-fluor 488 coupled secondary antibodies (Invitrogen, A32731, dil. 1/1000), Alexa-fluor 647-Phalloïdin (Invitrogen, A22287, dil. 1/200) and DAPI (Thermo, #62248, dil.1/1000) were diluted in blocking buffer and incubated with the samples for 2 hours at room temperature. After three final PBS washes, samples were conserved in 1000 PBS in the dark, until measurement. Image acquisition was performed on the Operetta High-Content Imager (Perkin-Elmer). Fluorescence intensity of Alexa-Fluor 488 (GSPT1), Alexa-Fluor 647 (Actin) and DAPI (Nucleus) were measured. For the determination of GSPT1 DC50 values, a custom algorithm implemented in the PerkinElmer image analysis software Harmony-Acapella® was developed. After user-defined setting of adjustment parameters, the analysis was run identically without human intervention for all image fields. DAPI staining of the nuclei was used to determine the location of cells using standard nuclei detection modules. Segmentation artifacts were removed by threshold-based filters for area, roundness and intensity. The outline of the cells was determined analogously from the sum of the normalized, smoothed DAPI and Actin channel, starting from each nucleus. The Alexa-Fluor 488 (GSPT1) signal intensity in each cell was finally measured, in order to obtain a Mean intensity per cell. GSPT1 degradation (DC50) was calculated after normalization to controls and data import in CDD vault Database, using non-linear regression. Activity for GSPT1 Degradation Table 3 assigns each compound a code indicating the ability for GSPT1 degradation: A, B or C. According to the code, A represents a DC50 value of ≤100 nM, B represents a DC50 value >100 nM and ≤300 nM and C represents a DC50 value of >300 nM.

[1] = molecular target: T1, Full length wild-type cereblon CRBN (Homo sapiens, UniProt Q96SW2); assay: Fluorescence polarization (FP) assay indicating cereblon binding; conditions: CRBN 80.0 nM, fluorescent probe 5 nM, FP measured after 12 hours; read-out: rFP IC50
T1 construct: Full length wild-type cereblon CRBN (80.0 nM, 10 μL) was incubated in assay buffer
T1 sequence (Q96SW2 whole entry): as the sequence (Q96SW2 whole entry) above
Source text: Protocol for Fluorescent Polarization Assay
Compound activity was monitored in a fluorescence polarization (FP) homogeneous assay using 1-[5-({2-[2-(2-{[2-(2,6-dioxopiperidin-3-yl)-1,3-dioxo-2,3-dihydro-1H-isoindol-4-yl]oxy}acetamido)ethoxy]ethyl}carbamoyl)pentyl]-3,3-dimethyl-2-[(1E,3E)-5-[(2E)-1,3,3-trimethyl-5-sulfo-2,3-dihydro-1H-indol-2-ylidene]penta-1,3-dien-1-yl]-3H-indol-1-ium-5-sulfonate as a fluorescent probe. Unless otherwise stated, all reagents were purchased from Sigma Aldrich. Enzymatic reactions were conducted in Perkin-Elmer Black 384 well ProxiPlate Plus (catalogue no. 6008269) in 10 μL total volume. Full length wild-type cereblon CRBN (80.0 nM, 10 μL) was incubated in assay buffer containing 20 mM HEPES (pH 8.0), […], 0.5 mM TCEP and 0.05% Tween 20 in the presence or absence of compound (300 nL). Inhibitors were stored as 10 mM DMSO stocks in an inert environment (low humidity, dark, low oxygen, room temperature) using the Storage Pod System. Compounds and DMSO were dispensed using the Echo E5XX (Labcyte Inc. USA) to give concentrations from 300 to 0.937 or 3000 to 9.3 nM in a 12 data point curve. […] Following incubation at room temperature for […], the assay was initiated by dispensing the probe to a final concentration of 5 nM (2.5 nL of a 20 μM stock) using the Echo E5XX. FP was measured after a period of 12 hours using a Pherastar plate reader (BMG Labtech, Germany) exciting at 590 nm and measuring the amount of parallel and perpendicular light at 675 nm. The FP signal was subsequently normalized to the no-compound control (i.e., DMSO). Analysis and IC50 values were derived using Dotmatics (Dotmatics UK) software.

[2] = read-out: Code: activity for GSPT1 degradation (DC50)
[3] = GSPT1 degradation, read-out: DC50

Row | Compound | DC50 (GSPT1; [2]) | IC50 [1] | DC50 (GSPT1; [3])
1 | Cc1c(Cl)cc(NC(=O)NCc2ccc3c(c2)C(=O)N(C2CCC(=O)NC2=O)C3)cc1CN1CC2(COC2)C1 (stereo not shown) [Compound 109] | 100 to 300 nM | 163 nM | 246 nM
2 | COCCOc1cc(NC(=O)NCc2ccc3c(c2)C(=O)N(C2CCC(=O)NC2=O)C3)cc(Cl)c1C (stereo not shown) [Compound 125] | ≤ 100 nM | 596 nM | 
3 | Cc1c(Cl)cc(NC(=O)NCc2ccc3c(c2)C(=O)N(C2CCC(=O)NC2=O)C3)cc1OC(F)(F)F (stereo not shown) [Compound 143] | 100 to 300 nM | 3590 nM | 
4 | CN1CCC(Oc2cc(Cl)cc(NC(=O)NCc3ccc4c(c3)C(=O)N(C3CCC(=O)NC3=O)C4)c2)C1 (stereo not shown) [Compound 162] | > 300 nM | 699 nM | 
5 | Cc1c(Cl)cc(NC(=O)NCc2ccc3c(c2)C(=O)N(C2CCC(=O)NC2=O)C3)cc1CN1CCN(C)CC1 (stereo not shown) [Compound 124] | > 300 nM | 198 nM | 
6 | Cc1c(Cl)cc(NC(=O)NCc2ccc3c(c2)C(=O)N(C2CCC(=O)NC2=O)C3)cc1CC1COC(C)(C)OC1 (stereo not shown) [Compound 142] | ≤ 100 nM | 594 nM | 
7 | Cc1c(CN2CCOCC2)cc(NC(=O)NCc2ccc3c(c2)C(=O)N(C2CCC(=O)NC2=O)C3)cc1OC(F)(F)F (stereo not shown) [Compound 151] | ≤ 100 nM | 883 nM | 
8 | CN1CCC(COc2cc(Cl)cc(NC(=O)NCc3ccc4c(c3)C(=O)N(C3CCC(=O)NC3=O)C4)c2)C1 (stereo not shown) [Compound 161] | > 300 nM | 300 nM | 
9 | Cc1c(Cl)cc(NC(=O)NCc2ccc3c(c2)C(=O)N(C2CCC(=O)NC2=O)C3)cc1CC(=O)O (stereo not shown) [Compound 120] | > 300 nM | 453 nM | 
10 | Cc1c(Cl)cc(NC(=O)NCc2ccc3c(c2)C(=O)N(C2CCC(=O)NC2=O)C3)cc1CN1CC2CCC(C1)O2 (stereo not shown) [Compound 140] |  | 559 nM | 
11 | Cc1ccc(CNC(=O)NCc2ccc3c(c2)C(=O)N(C2CCC(=O)NC2=O)C3)cc1Cl (stereo not shown) [Compound 152] | > 300 nM | 284 nM | 
12 | Cc1cc(NC(=O)NCc2ccc3c(c2)C(=O)N(C2CCC(=O)NC2=O)C3)cc(CN2CCOCC2)c1C (stereo not shown) [Compound 118] | ≤ 100 nM | 256 nM | 
13 | Cc1ccc(NC(=O)NCc2ccc3c(c2)C(=O)N(C2CCC(=O)NC2=O)C3)cc1CN1CCOCC1 (stereo not shown) [Compound 101, 1-((2-(2,6-dioxopiperidin-3-yl)-3-oxoisoindolin-5-yl)methyl)-3-(4-methyl-3-(morpholinomethyl)phenyl)urea] | 100 to 300 nM | 325 nM | 224 nM
14 | Cc1c(Cl)cc(NC(=O)NCc2ccc3c(c2)C(=O)N(C2CCC(=O)NC2=O)C3)cc1C[C@H]1CO[C@@H](C)OC1 (stereo partly shown) [Compound 145] | ≤ 100 nM | 741 nM | 
15 | Cc1cc(C)c(NC(=O)NCc2ccc3c(c2)C(=O)N(C2CCC(=O)NC2=O)C3)c(C)c1Cl (stereo not shown) [Compound 107] | > 300 nM | 247 nM | 
16 | Cc1c(Cl)cc(NC(=O)NCc2ccc3c(c2)C(=O)N(C2CCC(=O)NC2=O)C3)cc1CN1CCN2CCC1C2 (stereo not shown) [Compound 154] |  | 688 nM | 

More lines, now with the values ahead:

Row | DC50 (GSPT1; [2]) | IC50 [1] | DC50 (GSPT1; [3]) | Compound
17 | > 300 nM | 1140 nM |  | Cc1ccc(NC(=O)NCc2ccc3c(c2)C(=O)N(C2CCC(=O)NC2=O)C3)nc1Cl (stereo not shown) [Compound 137]
18 | > 300 nM | 425 nM |  | CN(C)CC(=O)Oc1cccc(NC(=O)NCc2ccc3c(c2)C(=O)N(C2CCC(=O)NC2=O)C3)c1 (stereo not shown) [Compound 136]
19 | > 300 nM | 341 nM |  | Cc1cc(NC(=O)NCc2ccc3c(c2)C(=O)N(C2CCC(=O)NC2=O)C3)sn1 (stereo not shown) [Compound 146]
20 | ≤ 100 nM | 544 nM |  | Cc1ccc(NC(=O)NCc2ccc3c(c2)C(=O)N(C2CCC(=O)NC2=O)C3)cc1OC(F)(F)F (stereo not shown) [Compound 144]
21 | 100 to 300 nM | 353 nM | 188 nM | O=C1CCC(N2Cc3ccc(CNC(=O)Nc4cccc(C(F)F)c4)cc3C2=O)C(=O)N1 (stereo not shown) [Compound 106]
22 | > 300 nM | 203 nM |  | COc1c(NC(=O)NCc2ccc3c(c2)C(=O)N(C2CCC(=O)NC2=O)C3)ccc(C)c1Cl (stereo not shown) [Compound 86]
23 | > 300 nM | 607 nM |  | Cc1c(Cl)cc(NC(=O)NCc2ccc3c(c2)C(=O)N(C2CCC(=O)NC2=O)C3)cc1C=O (stereo not shown) [Compound 156]
24 | > 300 nM | 1600 nM |  | O=C1CCC(N2Cc3ccc(CNC(=O)Nc4cc(OC(F)(F)F)ccn4)cc3C2=O)C(=O)N1 (stereo not shown) [Compound 164]
25 | > 300 nM | 301 nM |  | Cc1cc(NC(=O)NCc2ccc3c(c2)C(=O)N(C2CCC(=O)NC2=O)C3)no1 (stereo not shown) [Compound 97]
26 | 100 to 300 nM | 243 nM |  | O=C1CCC(N2Cc3ccc(CNC(=O)Nc4cccc(Oc5ccccn5)c4)cc3C2=O)C(=O)N1 (stereo not shown) [Compound 121]
27 | > 300 nM | 334 nM |  | CC(C)(O)c1ccc(NC(=O)NCc2ccc3c(c2)C(=O)N(C2CCC(=O)NC2=O)C3)cc1 (stereo not shown) [Compound 131]
28 | ≤ 100 nM | 1470 nM |  | CC(C)(C)c1ccc(NC(=O)NCc2ccc3c(c2)C(=O)N(C2CCC(=O)NC2=O)C3)cn1 (stereo not shown) [Compound 163]
29 | > 300 nM | 304 nM |  | O=C1CCC(N2Cc3ccc(CNC(=O)Nc4nccs4)cc3C2=O)C(=O)N1 (stereo not shown) [Compound 92]
30 | > 300 nM | 253 nM |  | Cc1cnc(NC(=O)NCc2ccc3c(c2)C(=O)N(C2CCC(=O)NC2=O)C3)s1 (stereo not shown) [Compound 147]
31 | ≤ 100 nM | 350 nM |  | Cc1c(Cl)cc(NC(=O)NCc2ccc3c(c2)C(=O)N(C2CCC(=O)NC2=O)C3)cc1N(C)C (stereo not shown) [Compound 129]
32 | > 300 nM | 432 nM |  | O=C1CCC(N2Cc3ccc(CNC(=O)Nc4cccnc4)cc3C2=O)C(=O)N1 (stereo not shown) [Compound 95]
33 | > 300 nM | 351 nM |  | Cn1ccc(NC(=O)NCc2ccc3c(c2)C(=O)N(C2CCC(=O)NC2=O)C3)n1 (stereo not shown) [Compound 88]
34 | > 300 nM | 169 nM |  | CCc1cnc(NC(=O)NCc2ccc3c(c2)C(=O)N(C2CCC(=O)NC2=O)C3)s1 (stereo not shown) [Compound 148]
35 | 100 to 300 nM | 230 nM | 299 nM | Cn1nccc1-c1cccc(NC(=O)NCc2ccc3c(c2)C(=O)N(C2CCC(=O)NC2=O)C3)c1 (stereo not shown) [Compound 115]
36 | > 300 nM | 387 nM |  | Cn1cc(NC(=O)NCc2ccc3c(c2)C(=O)N(C2CCC(=O)NC2=O)C3)cn1 (stereo not shown) [Compound 83]
37 | > 300 nM | 477 nM |  | CC(C)(O)c1cccc(NC(=O)NCc2ccc3c(c2)C(=O)N(C2CCC(=O)NC2=O)C3)c1 (stereo not shown) [Compound 135]
